Target: human PAD4 (Homo sapiens (Human), UniProt Q9UM07)
Experiment: In Vitro PAD4 BAEE Biochemical Assay
Settings: human PAD4, BAEE substrate; 5 nM PAD4, 2 mM calcium chloride, 3 mM BAEE; geometric mean of multiple experiments
In short: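 Recombinant human PAD4 (His-SUMO tag removed, E. coli-expressed), 5 nM, preincubated with compound and 2 mM CaCl2 30 min at 25 °C in MOPS pH 7.6 with DTT; 3 mM BAEE added for 2 h at 25 °C, EDTA stop. Released ammonia detected by o-phthalaldehyde/DTT fluorescence (ex 405, em 535 nm).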

human PAD4, sequence (Q9UM07 2-663): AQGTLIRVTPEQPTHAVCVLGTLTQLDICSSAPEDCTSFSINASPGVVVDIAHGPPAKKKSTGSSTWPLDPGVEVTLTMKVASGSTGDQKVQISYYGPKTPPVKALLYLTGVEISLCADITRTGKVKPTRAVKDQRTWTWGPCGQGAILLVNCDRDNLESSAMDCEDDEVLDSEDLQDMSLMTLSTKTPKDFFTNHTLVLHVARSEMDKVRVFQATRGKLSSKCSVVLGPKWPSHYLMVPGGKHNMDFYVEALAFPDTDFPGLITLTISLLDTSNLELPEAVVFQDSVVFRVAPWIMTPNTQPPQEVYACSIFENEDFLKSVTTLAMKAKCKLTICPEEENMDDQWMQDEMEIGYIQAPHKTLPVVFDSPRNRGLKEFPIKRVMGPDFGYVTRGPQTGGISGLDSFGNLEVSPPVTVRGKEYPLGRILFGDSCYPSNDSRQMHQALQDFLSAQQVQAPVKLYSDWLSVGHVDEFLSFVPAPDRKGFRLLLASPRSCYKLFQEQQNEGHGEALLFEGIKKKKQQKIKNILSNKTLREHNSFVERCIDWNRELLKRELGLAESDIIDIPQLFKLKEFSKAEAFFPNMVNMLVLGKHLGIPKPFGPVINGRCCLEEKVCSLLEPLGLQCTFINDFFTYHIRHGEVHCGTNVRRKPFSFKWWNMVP

IC50	Structure (SMILES)
72.3 nM	COc1cc(C(=O)N2C[C@H](N)CCN2C)cc2nc(-c3cc4ccc([C@@H](C)NC(=O)C(C)(C)C)nc4n3CC3CC3)n(C)c12 [Example 161, N-((R)-1-(2-(5-((R)-5-amino-2-methylhexahydropyridazine-1-carbonyl)-7-methoxy-1-methyl-1H-benzo[d]imidazol-2-yl)-1-(cyclopropylmethyl)-1H-pyrrolo[2,3-b]pyridin-6-yl)ethyl)pivalamide]
92.1 nM	COc1cc(C(=O)N2C[C@H](N)CCN2C)cc2nc(-c3cc4ccc([C@@H](C)NC(=O)C5CC(F)(F)C5)nc4n3CC3CC3)n(C)c12 [Example 162, N-((R)-1-(2-(5-((R)-5-amino-2-methylhexahydropyridazine-1-carbonyl)-7-methoxy-1-methyl-1H-benzo[d]imidazol-2-yl)-1-(cyclopropylmethyl)-1H-pyrrolo[2,3-b]pyridin-6-yl)ethyl)-3,3-difluorocyclobutane-1-carboxamide]
4050 nM	COc1cc(C(=O)N2C[C@H](N)CCN2C)cc2nc(-c3cc4ccc([C@@H](C)NC(=O)C5(c6ccc(C(F)(F)F)cc6)CC5)nc4n3CC3CC3)n(C)c12 [Example 163, N-((R)-1-(2-(5-((R)-5-amino-2-methylhexahydropyridazine-1-carbonyl)-7-methoxy-1-methyl-1H-benzo[d]imidazol-2-yl)-1-(cyclopropylmethyl)-1H-pyrrolo[2,3-b]pyridin-6-yl)ethyl)-1-(4-(trifluoromethyl)phenyl)cyclopropane-1-carboxamide]
148 nM	COc1cc(C(=O)N2C[C@H](N)CCN2C)cc2nc(-c3cc4ccc([C@@H](C)NC(=O)[C@H](C)c5ccccc5)nc4n3CC3CC3)n(C)c12 [Example 164, (R)-N-((R)-1-(2-(5-((R)-5-amino-2-methylhexahydropyridazine-1-carbonyl)-7-methoxy-1-methyl-1H-benzo[d]imidazol-2-yl)-1-(cyclopropylmethyl)-1H-pyrrolo[2,3-b]pyridin-6-yl)ethyl)-2-phenylpropanamide]
91.4 nM	COc1cc(C(=O)N2C[C@H](N)CCN2C)cc2nc(-c3cc4ccc([C@@H](C)NC(=O)[C@@H](C)c5ccccc5)nc4n3CC3CC3)n(C)c12 [Example 165, (S)-N-((R)-1-(2-(5-((R)-5-amino-2-methylhexahydropyridazine-1-carbonyl)-7-methoxy-1-methyl-1H-benzo[d]imidazol-2-yl)-1-(cyclopropylmethyl)-1H-pyrrolo[2,3-b]pyridin-6-yl)ethyl)-2-phenylpropanamide]
180 nM	COc1cc(C(=O)N2C[C@H](N)CCN2C)cc2nc(-c3cc4ccc([C@@H](C)NC(=O)c5ccccc5C(F)F)nc4n3CC3CC3)n(C)c12 [Example 166, N-((R)-1-(2-(5-((R)-5-amino-2-methylhexahydropyridazine-1-carbonyl)-7-methoxy-1-methyl-1H-benzo[d]imidazol-2-yl)-1-(cyclopropylmethyl)-1H-pyrrolo[2,3-b]pyridin-6-yl)ethyl)-2-(difluoromethyl)benzamide]
388 nM	COc1cc(C(=O)N2C[C@H](N)CCN2C)cc2nc(-c3cc4ccc([C@@H](C)NC(=O)C(F)(F)c5ccccc5)nc4n3CC3CC3)n(C)c12 [Example 167, N-((R)-1-(2-(5-((R)-5-amino-2-methylhexahydropyridazine-1-carbonyl)-7-methoxy-1-methyl-1H-benzo[d]imidazol-2-yl)-1-(cyclopropylmethyl)-1H-pyrrolo[2,3-b]pyridin-6-yl)ethyl)-2,2-difluoro-2-phenylacetamide]
102 nM	COc1cc(C(=O)N2C[C@H](N)CCN2C)cc2nc(-c3cc4ccc([C@@H](C)NC(=O)[C@@H]5CC5(F)F)nc4n3CC3CC3)n(C)c12 [Example 168, (S)-N-((R)-1-(2-(5-((R)-5-amino-2-methylhexahydropyridazine-1-carbonyl)-7-methoxy-1-methyl-1H-benzo[d]imidazol-2-yl)-1-(cyclopropylmethyl)-1H-pyrrolo[2,3-b]pyridin-6-yl)ethyl)-2,2-difluorocyclopropane-1-carboxamide]
47.8 nM	COc1cc(C(=O)N2C[C@H](N)CCN2C)cc2nc(-c3cc4ccc([C@@H](C)NC(=O)c5cnn(C)c5)nc4n3CC3CC3)n(C)c12 [Example 169, N-((R)-1-(2-(5-((R)-5-amino-2-methylhexahydropyridazine-1-carbonyl)-7-methoxy-1-methyl-1H-benzo[d]imidazol-2-yl)-1-(cyclopropylmethyl)-1H-pyrrolo[2,3-b]pyridin-6-yl)ethyl)-1-methyl-1H-pyrazole-4-carboxamide]
67.1 nM	COc1cc(C(=O)N2C[C@H](N)CCN2C)cc2nc(-c3cc4ccc([C@@H](C)NC(=O)c5cnn(C(F)F)c5)nc4n3CC3CC3)n(C)c12 [Example 170, N-((R)-1-(2-(5-((R)-5-amino-2-methylhexahydropyridazine-1-carbonyl)-7-methoxy-1-methyl-1H-benzo[d]imidazol-2-yl)-1-(cyclopropylmethyl)-1H-pyrrolo[2,3-b]pyridin-6-yl)ethyl)-1-(difluoromethyl)-1H-pyrazole-4-carboxamide]
90.2 nM	COc1cc(C(=O)N2C[C@H](N)CCN2C)cc2nc(-c3cc4ccc([C@@H](C)NC(=O)C56CC(F)(C5)C6)nc4n3CC3CC3)n(C)c12 [Example 171, N-((R)-1-(2-(5-((R)-5-amino-2-methylhexahydropyridazine-1-carbonyl)-7-methoxy-1-methyl-1H-benzo[d]imidazol-2-yl)-1-(cyclopropylmethyl)-1H-pyrrolo[2,3-b]pyridin-6-yl)ethyl)-3-fluorobicyclo[1.1.1]pentane-1-carboxamide]
147 nM	COc1cc(C(=O)N2C[C@H](N)CCN2C)cc2nc(-c3cc4ccc([C@@H](C)NC(=O)c5c(C)cccc5C)nc4n3CC3CC3)n(C)c12 [Example 172, N-((R)-1-(2-(5-((R)-5-amino-2-methylhexahydropyridazine-1-carbonyl)-7-methoxy-1-methyl-1H-benzo[d]imidazol-2-yl)-1-(cyclopropylmethyl)-1H-pyrrolo[2,3-b]pyridin-6-yl)ethyl)-2,6-dimethylbenzamide]
139 nM	COc1cc(C(=O)N2C[C@H](N)CCN2C)cc2nc(-c3cc4ccc([C@@H](C)NC(=O)c5ncccc5C)nc4n3CC3CC3)n(C)c12 [Example 175, N-((R)-1-(2-(5-((R)-5-amino-2-methylhexahydropyridazine-1-carbonyl)-7-methoxy-1-methyl-1H-benzo[d]imidazol-2-yl)-1-(cyclopropylmethyl)-1H-pyrrolo[2,3-b]pyridin-6-yl)ethyl)-3-methylpicolinamide]
231 nM	COc1cc(C(=O)N2C[C@H](N)CCN2C)cc2nc(-c3cc4ccc([C@@H](C)NC(=O)c5nc(C)ccc5C)nc4n3CC3CC3)n(C)c12 [Example 176, N-((R)-1-(2-(5-((R)-5-amino-2-methylhexahydropyridazine-1-carbonyl)-7-methoxy-1-methyl-1H-benzo[d]imidazol-2-yl)-1-(cyclopropylmethyl)-1H-pyrrolo[2,3-b]pyridin-6-yl)ethyl)-3,6-dimethylpicolinamide]
90.8 nM	COc1cc(C(=O)N2C[C@H](N)CCN2C)cc2nc(-c3cc4ccc([C@@H](C)NC(=O)c5cccnc5C)nc4n3CC3CC3)n(C)c12 [Example 177, N-((R)-1-(2-(5-((R)-5-amino-2-methylhexahydropyridazine-1-carbonyl)-7-methoxy-1-methyl-1H-benzo[d]imidazol-2-yl)-1-(cyclopropylmethyl)-1H-pyrrolo[2,3-b]pyridin-6-yl)ethyl)-2-methylnicotinamide]
80.4 nM	COc1cc(C(=O)N2C[C@H](N)CCN2C)cc2nc(-c3cc4ccc([C@@H](C)NC(=O)c5c(C)ccnc5C)nc4n3CC3CC3)n(C)c12 [Example 178, N-((R)-1-(2-(5-((R)-5-amino-2-methylhexahydropyridazine-1-carbonyl)-7-methoxy-1-methyl-1H-benzo[d]imidazol-2-yl)-1-(cyclopropylmethyl)-1H-pyrrolo[2,3-b]pyridin-6-yl)ethyl)-2,4-dimethylnicotinamide]
77.5 nM	COc1cc(C(=O)N2C[C@H](N)CCN2C)cc2nc(-c3cc4ccc([C@@H](C)NC(=O)c5cc(C)nc(C)c5)nc4n3CC3CC3)n(C)c12 [Example 179, N-((R)-1-(2-(5-((R)-5-amino-2-methylhexahydropyridazine-1-carbonyl)-7-methoxy-1-methyl-1H-benzo[d]imidazol-2-yl)-1-(cyclopropylmethyl)-1H-pyrrolo[2,3-b]pyridin-6-yl)ethyl)-2,6-dimethylisonicotinamide]
28.8 nM	COc1cc(C(=O)N2C[C@H](N)CCN2C)cc2nc(-c3cc4ccc([C@@H](C)NC(=O)c5ncccn5)nc4n3CC3CC3)n(C)c12 [Example 180, N-((R)-1-(2-(5-((R)-5-amino-2-methylhexahydropyridazine-1-carbonyl)-7-methoxy-1-methyl-1H-benzo[d]imidazol-2-yl)-1-(cyclopropylmethyl)-1H-pyrrolo[2,3-b]pyridin-6-yl)ethyl)pyrimidine-2-carboxamide]

Structure (SMILES)	IC50
COc1cc(C(=O)N2[C@H]3CC[C@@H]2[C@H](N)C3)cc2nc(-c3cc4ccc([C@@H](C)NC(=O)C5(n6cccn6)CC5)nc4n3CC3CC3)n(C)c12 [Example 173, N-((R)-1-(2-(5-((1R,2R,4S)-2-amino-7-azabicyclo[2.2.1]heptane-7-carbonyl)-7-methoxy-1-methyl-1H-benzo[d]imidazol-2-yl)-1-(cyclopropylmethyl)-1H-pyrrolo[2,3-b]pyridin-6-yl)ethyl)-1-(1H-pyrazol-1-yl)cyclopropane-1-carboxamide]	96.7 nM
COc1cc(C(=O)N2[C@H]3CC[C@@H]2[C@H](N)C3)cc2nc(-c3cc4ccc([C@@H](C)NC(=O)Cn5cccn5)nc4n3CC3CC3)n(C)c12 [Example 174, N-((R)-1-(2-(5-((1R,2R,4S)-2-amino-7-azabicyclo[2.2.1]heptane-7-carbonyl)-7-methoxy-1-methyl-1H-benzo[d]imidazol-2-yl)-1-(cyclopropylmethyl)-1H-pyrrolo[2,3-b]pyridin-6-yl)ethyl)-2-(1H-pyrazol-l-yl)acetamide]	45.1 nM

Reference: patent publication US11878965B2, “Inhibitors of peptidylarginine deiminases” (Gilead Sciences, Inc., priority 2020, dated 2024)
